# Counter-ions that a name gives are not always drawn.
# Target: T1, human receptor found in pancreatic islet cells (Homo sapiens, UniProt Q7Z601)
# T1 sequence (Q7Z601 1-462): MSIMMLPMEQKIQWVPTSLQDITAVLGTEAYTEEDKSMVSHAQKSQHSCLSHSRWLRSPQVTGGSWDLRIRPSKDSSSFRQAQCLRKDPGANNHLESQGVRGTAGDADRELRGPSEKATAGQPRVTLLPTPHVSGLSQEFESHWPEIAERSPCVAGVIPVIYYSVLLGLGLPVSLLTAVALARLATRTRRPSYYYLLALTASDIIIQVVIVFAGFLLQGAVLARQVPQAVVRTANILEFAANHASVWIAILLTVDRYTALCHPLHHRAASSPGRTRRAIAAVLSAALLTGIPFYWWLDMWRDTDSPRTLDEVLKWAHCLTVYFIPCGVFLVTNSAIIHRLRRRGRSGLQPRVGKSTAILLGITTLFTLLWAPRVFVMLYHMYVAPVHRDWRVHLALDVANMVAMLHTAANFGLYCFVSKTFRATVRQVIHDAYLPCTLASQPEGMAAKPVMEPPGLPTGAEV
# Assay: Activation of intracellular IP3 signaling in transfected cells (Activation Assay)
# Assay type: cell-based
# Settings: calculated from IP3 concentration measurements in cells transfected with the human receptor
# Protocol: Table 12 provides exemplary compounds that were prepared and assessed, following protocols known to those of skilled in the art, for activation of intracellular inositol trisphosphate (IP3) signaling pathways that lead to elevation of intracellular calcium concentration. EC50 values provided in Table 12 were calculated from IP3 concentration measurements in cells transfected with a human receptor found in pancreatic islet cells, inter alia.
row,EC50 [nM],Compound
1,< 50,"CCn1nc(-c2ccnc(NC)c2)cc1NC(=O)[C@H](Cc1ccc(F)cc1)NCC(=O)O [Example 31.4, 2-((S)-1-(1-Ethyl-3-(2-(methylamino)pyridin-4-yl)-1H-pyrazol-5-ylamino)-3-(4-fluorophenyl)-1-oxopropan-2-ylamino)acetic acid]"
2,100 to 1000,"O=C(Nc1cc(-c2ccncc2)no1)[C@H](Cc1ccccc1)NCc1cscn1 [Example 3.3, (S)-3-Phenyl-N-(3-(pyridin-4-yl)isoxazol-5-yl)-2-(thiazol-4-ylmethylamino)propanamide]"
3,< 50,"Cc1cc(-c2cc(NC(=O)[C@H](Cc3ccc(F)cc3)NCc3cscn3)[nH]n2)ccn1 [Example 21.1, (2S)-3-(4-Fluorophenyl)-N-(3-(2-methylpyridin-4-yl)-1H-pyrazol-5-yl)-2-(thiazol-4-ylmethylamino)propanamide dihydrochloride]"
4,100 to 1000,"COC(=O)c1cc(-c2ccncc2)cc2c1CCN2C(=O)[C@@H](N)Cc1ccccc1 [Example 54.1, (S)-Methyl 1-(2-amino-3-phenylpropanoyl)-6-(pyridin-4-yl)indoline-4-carboxylate]"
5,100 to 1000,"O=C(Nc1cncc(-c2ccn[nH]2)c1)[C@H](Cc1ccccc1)NCc1cscn1 [Example 6, (2S)—N-(5-(1H-Pyrazol-5-yl)pyridin-3-yl)-3-phenyl-2-(thiazol-4-ylmethylamino)propanamide]"
6,100 to 1000,"Nc1nc(CN[C@@H](Cc2ccccc2)C(=O)Nc2nnc(-c3ccncc3)s2)cs1 [Example 1.3, (S)-2-((2-aminothiazol-4-yl)methylamino)-3-phenyl-N-(5-(pyridin-4-yl)-1,3,4-thiadiazol-2-yl)propanamide]"
7,100 to 1000,"CN(C)CCNC(=O)c1cc(NC(=O)[C@H](Cc2ccccc2)NCc2cscn2)cc(-c2ccncc2)c1 [Example 74, (S)—N-(2-(dimethylamino)ethyl)-3-(3-phenyl-2-(thiazol-4-ylmethylamino)propanamido)-5-(pyridin-4-yl)benzamide bis trifluoroacetate salt]"
8,50 to 100,"COc1ncc(-c2cc[nH]n2)cc1NC(=O)[C@H](Cc1ccccc1)NCc1cscn1 [Example 14.3, (2S)—N-(2-methoxy-5-(1H-pyrazol-3-yl)pyridin-3-yl)-3-phenyl-2-(thiazol-4-ylmethylamino)propanamide]"
9,50 to 100,"Cc1nnc(-c2cc(-c3ccncc3)cc3c2CCN3C(=O)[C@H](Cc2ccccc2)NCc2cscn2)[nH]1 [Example 69, (2S)-1-(4-(5-Methyl-4H-1,2,4-triazol-3-yl)-6-(pyridin-4-yl)indolin-1-yl)-3-phenyl-2-(thiazol-4-ylmethylamino)propan-1-one]"
10,50 to 100,"COC(=O)c1cc(-c2ccnc(C)c2)cc2c1CCN2C(=O)[C@H](Cc1ccccc1)NCc1ccccn1 [Example 72, Methyl 6-(2-methylpyridin-4-yl)-1-((S)-3-phenyl-2-(pyridin-2-ylmethylamino)propanoyl)indoline-4-carboxylate]"
11,50 to 100,CNc1cc(-c2cc(NC(=O)[C@H](Cc3ccc(F)cc3)NCc3cscn3)n(C(C)C)n2)ccn1 [Example 43.2]
12,100 to 1000,"COC(=O)COc1cc(NC(=O)[C@H](Cc2ccccc2)NCc2cscn2)cc(-c2ccnc(C)c2)c1 [Example 65, Methyl 2-(3-(2-methylpyridin-4-yl)-5-((S)-3-phenyl-2-(thiazol-4-ylmethylamino)propanamido)phenoxy)acetate]"
13,50 to 100,"NC(=O)CNC(=O)c1cc(-c2ccncc2)cc2c1CCN2C(=O)[C@H](Cc1ccccc1)NCc1cscn1 [Example 71, (S)—N-(2-Amino-2-oxoethyl)-1-(3-phenyl-2-(thiazol-4-ylmethylamino)propanoyl)-6-(pyridin-4-yl)indoline-4-carboxamide]"
14,100 to 1000,"C[C@H](N[C@@H](Cc1ccccc1)C(=O)Nc1nnc(-c2ccncc2)s1)c1ccccn1 [Example 1.2, (S)-3-phenyl-2-((S)-1-(pyridin-2-yl)ethylamino)-N-(5-(pyridin-4-yl)-1,3,4-thiadiazol-2-yl)propanamide]"
15,< 50,"CNc1cc(-c2cc(NC(=O)[C@H](Cc3ccccc3)NCc3cscn3)n(C)n2)ccn1 [Example 23.10, (2S)—N-(1-methyl-3-(2-(methylamino)pyridin-4-yl)-1H-pyrazol-5-yl)-3-phenyl-2-(thiazol-4-ylmethylamino)propanamide]"
16,50 to 100,"COC(=O)COc1ccc(-c2ccnc(C)c2)cc1NC(=O)[C@H](Cc1ccccc1)NCc1cscn1 [Example 64, Methyl 2-(4-(2-methylpyridin-4-yl)-2-((S)-3-phenyl-2-(thiazol-4-ylmethylamino)propanamido)phenoxy)acetate]"
17,< 50,"Cn1nc(-c2ccncc2)cc1NC(=O)[C@H](Cc1ccccc1)NCc1ccc(F)cn1 [Example 17.4, (S)-2-((5-Fluoropyridin-2-yl)methylamino)-N-(1-methyl-3-(pyridin-4-yl)-1H-pyrazol-5-yl)-3-phenylpropanamide]"
18,100 to 1000,"O=C(Nc1nccc(-c2ccncc2)n1)[C@H](Cc1ccccc1)NCc1cscn1 [Example 10, (S)-3-phenyl-N-(4-(pyridin-4-yl)pyrimidin-2-yl)-2-(thiazol-4-ylmethylamino)propanamide]"
19,50 to 100,"COC(=O)c1cc(-c2ccncc2)cc2c1CCN2C(=O)[C@H](Cc1ccc(F)cc1)NCc1cscn1 [Example 54.5, (S)-Methyl 1-(3-(4-fluorophenyl)-2-(thiazol-4-ylmethylamino)propanoyl)-6-(pyridin-4-yl)indoline-4-carboxylate]"
20,100 to 1000,"N#Cc1cc(-c2ccncc2)cc2c1CCN2C(=O)[C@H](Cc1ccccc1)NCc1cscn1 [Example 53, (S)-1-(3-Phenyl-2-(thiazol-4-ylmethylamino)propanoyl)-6-(pyridin-4-yl)indoline-4-carbonitrile]"
21,100 to 1000,"COc1ncc(-c2ccnc(C)c2)cc1NC(=O)[C@H](Cc1ccccc1)NCc1cscn1 [Example 41.5, (2S)—N-(2-Methoxy-5-(2-methylpyridin-4-yl)pyridin-3-yl)-3-phenyl-2-(thiazol-4-ylmethylamino)propanamide TFA salt]"
22,50 to 100,"O=C(Nc1cnc(-c2ccncc2)s1)[C@H](Cc1ccccc1)NCc1cscn1 [Example 5.3, (S)-3-Phenyl-N-(2-(pyridin-4-yl)thiazol-5-yl)-2-(thiazol-4-ylmethylamino)-propanamide]"
23,100 to 1000,"O=C(O)Cn1nc(-c2ccncc2)cc1NC(=O)[C@H](Cc1ccccc1)NCc1cscn1 [Example 26, (S)-2-(5-(3-Phenyl-2-(thiazol-4-ylmethylamino)propanamido)-3-(pyridin-4-yl)-1H-pyrazol-1-yl)acetic acid]"
24,< 50,"CNc1cc(-c2cc(NC(=O)[C@H](Cc3ccccc3)NCC(=O)O)n(C)n2)ccn1 [Example 23.9, 2-((S)-1-(1-Methyl-3-(2-(methylamino)pyridin-4-yl)-1H-pyrazol-5-ylamino)-1-oxo-3-phenylpropan-2-ylamino)acetic acid]"
25,100 to 1000,"CC(N[C@@H](Cc1ccccc1)C(=O)Nc1cccc(-c2ccncc2)c1)c1cnccn1 (stereo partly drawn) [Example 34.10, (2S)-3-Phenyl-2-(1-(pyrazin-2-yl)ethylamino)-N-(3-(pyridin-4-yl)phenyl)propanamide]"
26,1000 to 10000,"O=C(Nc1cccc(-c2ccncc2)c1)[C@H](Cc1ccccc1)NCC1CCOC1 (stereo partly drawn) [Example 34.11, (2S)-3-Phenyl-N-(3-(pyridin-4-yl)phenyl)-2-((tetrahydrofuran-3-yl)methylamino)propanamide TFA salt]"
